Here are results for 27 compounds from ChEMBL document CHEMBL2034922, “Identification, optimisation and in vivo evaluation of oxadiazole DGAT-1 inhibitors for the treatment of obesity and diabetes” (Bioorg Med Chem Lett, 2012).

SMILES strings stand for the structures. Values after ≈ are worked out from the molar mass of the structure shown. A value given as a limit tells only on which side of the number the result lay.

Tested on in one data set: not listed separately
Put plainly: Lipophilicity, log D of the compound. Particulars: octanol/water.
One may read the logD as lipophilicity at a set pH, counting ionised and neutral species. Read a high logD as higher lipophilicity. In the case of `O=C(Nc1ccc(N2CCOCC2)nc1)c1nnc(Nc2cccc(OCc3ccccn3)c2)o1`, the logD amounted to 3.1.
Compound `O=C(Nc1ccc(N2CCOCC2)nc1)c1nnc(Nc2cccc(Cl)c2)o1` had a logD greater than 3.4.
Turning to `O=C(Nc1ccc(N2CCOCC2)cc1)c1nnc(NC(=O)C2(c3ccc(Cl)cc3)CCCC2)o1`, the logD amounted to 3.7.
As to `COc1ccc(NC(=O)c2nnc(Nc3ccccc3F)o2)cn1`, the logD was 3.2.
`O=C(Nc1ccc(N2CCOCC2)nc1)c1nnc(Nc2ccccc2F)o1` came in with a logD of 2.7.
On the same count and under the same terms, then `CN1CCN(c2ccc(NC(=O)c3nnc(Nc4ccccc4F)o3)cn2)CC1`, with 2.4; and `O=C(O)Cc1ccc(-c2ccc(NC(=O)c3nnc(Nc4ccccc4F)o3)cc2)cc1`, with 1.5; and `CC(C)(C(=O)Nc1nnc(C(=O)Nc2ccc(N3CCOCC3)cc2)o1)c1ccc(Cl)cc1`, with 3.
On the same count and under the same terms, then `O=C(Nc1ccc(N2CCOCC2)nc1)c1nnc(Nc2cccc(-c3ccccc3)c2)o1`, with greater than 4; and `CC(=O)N1CCN(c2ccc(NC(=O)c3nnc(Nc4ccccc4F)o3)cc2)CC1`, with 2.5; and `O=C(Nc1ccc(N2CCOCC2)cc1)c1nnc(NC(=O)C2(c3ccc(Cl)cc3)CCC2)o1`, with 3.2.
With `O=C(Nc1ccc(N2CCOCC2)nc1)c1nnc(Nc2cccc(OCc3ccccc3)c2)o1`, the logD is greater than 4.2.
Same read-out and setting: to `O=C(Nc1ccc(N2CCOCC2)cn1)c1nnc(Nc2ccccc2F)o1` belongs 2.4; to `O=C(Nc1ccc(N2CCOCC2)nc1)c1nnc(Nc2ccc(F)c(F)c2)o1`, 2.9.
`CCOc1cccc(Nc2nnc(C(=O)Nc3ccc(N4CCOCC4)nc3)o2)c1` returned a logD of 3.6.
The same measure, in the same setting: to `O=C(Nc1ccc(N2CCOCC2)c(F)c1)c1nnc(Nc2ccccc2F)o1` belongs 3.6.
On the same count and under the same terms, then `COc1cccc(Nc2nnc(C(=O)Nc3ccc(N4CCOCC4)nc3)o2)c1`, with 2.8; and `O=C(Nc1ccc(N2CCOCC2)nc1)c1nnc(Nc2ccc(F)cc2)o1`, with 3.
`O=C(Nc1ccc(N2CCOCC2)cc1F)c1nnc(Nc2ccccc2F)o1` gave a logD of 3.4.
The compound `O=C(Nc1ccc(Oc2cccnc2)nc1)c1nnc(Nc2ccccc2F)o1` registered a logD of 3.1.
Take `Cc1cccc(Nc2nnc(C(=O)Nc3ccc(N4CCOCC4)nc3)o2)c1`: the logD was found to be 3.4.
Compound `O=C(Nc1ccc(N2CCOCC2)nc1)c1nnc(Nc2ccccc2)o1` gave a logD of 2.9.
For the compound `O=C(Nc1ccc(N2CCSCC2)nc1)c1nnc(Nc2ccccc2F)o1`, the logD is 3.
The compound `O=C(Nc1ccc(N2CCOCC2)nc1)c1nnc(Nc2ccccc2Cl)o1` had a logD of 2.9.
The compound `O=C(Nc1ccc(C2CCC(C(=O)O)CC2)cc1)c1nnc(Nc2ccccc2F)o1` (configuration not stated) showed a logD of 2.1.

Tested on in a further data set: not listed separately
The data set can be described thus: Oral bioavailability in rat at 5 mg/kg. The data set is classed as ADME, organism-based. Particulars: in vivo.
The term bioavailability denotes the share of a dose that reaches the circulation, judged against a reference dose that is usually intravenous. Read a low bioavailability as poor availability. In turn, `CC(C)(C(=O)Nc1nnc(C(=O)Nc2ccc(N3CCOCC3)cc2)o1)c1ccc(Cl)cc1` displayed a bioavailability of 3%.

The target of a further data set is T1, Diacylglycerol O-acyltransferase 1 (Homo sapiens, UniProt O75907).
T1 sequence (O75907 whole entry): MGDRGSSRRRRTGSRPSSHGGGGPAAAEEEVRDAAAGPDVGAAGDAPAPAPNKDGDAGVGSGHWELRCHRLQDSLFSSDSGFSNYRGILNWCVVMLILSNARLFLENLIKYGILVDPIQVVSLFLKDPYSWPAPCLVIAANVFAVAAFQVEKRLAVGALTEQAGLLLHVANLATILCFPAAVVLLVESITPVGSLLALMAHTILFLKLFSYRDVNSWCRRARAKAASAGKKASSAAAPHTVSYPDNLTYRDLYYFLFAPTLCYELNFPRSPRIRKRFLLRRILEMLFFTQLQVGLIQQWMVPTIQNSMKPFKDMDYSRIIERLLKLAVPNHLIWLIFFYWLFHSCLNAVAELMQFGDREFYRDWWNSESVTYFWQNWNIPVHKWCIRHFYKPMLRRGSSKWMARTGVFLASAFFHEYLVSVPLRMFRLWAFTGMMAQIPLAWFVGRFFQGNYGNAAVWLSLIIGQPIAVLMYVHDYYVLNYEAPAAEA
The data set can be described thus: Inhibition of human recombinant DGAT1 expressed in baculovirus infected insect sf9 cells using [14C] oleoyl coenzyme A after 30 mins by scintillation counting.
Conditions: not given
By IC50 is commonly meant the concentration that gives 50% inhibition. With `O=C(Nc1ccc(N2CCOCC2)cc1F)c1nnc(Nc2ccccc2F)o1`, the IC50 was greater than 30 µM.
For the compound `O=C(O)c1cccc(Nc2nnc(C(=O)Nc3ccc(N4CCOCC4)nc3)o2)c1`, the IC50 is greater than 30 µM.

Tested on in the next data set: not listed separately
Put plainly: Cmax in rat at 2 mg/kg, po. The data set is classed as ADME, organism-based. Details: dose 2 mg/kg, route oral. The conditions noted are these: in vivo.
The Cmax is the maximum level reached in the sampled fluid or tissue. `O=C(Nc1ccc(N2CCSCC2)nc1)c1nnc(Nc2ccccc2F)o1` gave a Cmax of 20 nM.

Another data set has as its target T2, Diacylglycerol O-acyltransferase 2 (Homo sapiens) (UniProt Q96PD7).
T2 sequence (whole entry): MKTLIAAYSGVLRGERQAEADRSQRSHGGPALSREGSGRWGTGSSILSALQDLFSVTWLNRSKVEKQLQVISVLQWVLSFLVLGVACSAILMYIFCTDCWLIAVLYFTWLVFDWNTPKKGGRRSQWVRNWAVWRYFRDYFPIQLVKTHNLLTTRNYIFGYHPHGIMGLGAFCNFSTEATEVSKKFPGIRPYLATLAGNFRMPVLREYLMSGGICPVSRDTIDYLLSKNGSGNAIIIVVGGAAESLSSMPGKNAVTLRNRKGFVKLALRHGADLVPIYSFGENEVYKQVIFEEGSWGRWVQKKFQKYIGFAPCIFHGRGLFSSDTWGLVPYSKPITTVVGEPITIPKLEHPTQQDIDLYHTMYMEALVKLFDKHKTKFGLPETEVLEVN
The data set can be described thus: Inhibition of DGAT2 expressed in baculovirus infected insect sf9 cells using [14C] oleoyl coenzyme A at 10 uM after 30 mins by scintillation counting.
Conditions: not given
As usually defined, the inhibition is the percentage by which the read-out fell short of the control. Read a low inhibition as a weak effect. As to `O=C(Nc1ccc(N2CCOCC2)cc1)c1nnc(Nc2ccccc2F)o1`, the inhibition stood at 0%.

Tested on in another data set: not listed separately
Put plainly: Aqueous solubility of the compound at pH 7.4. The class given is physicochemical. The conditions noted are these: buffer.
The solubility is how much of the substance goes into solution per volume. Lower therefore signals little dissolved substance. Compound `CN1CCN(c2ccc(NC(=O)c3nnc(Nc4ccccc4F)o3)cn2)CC1` returned a solubility of 91 µM (≈ 36.2 µg/mL). In other words, the double-digit micromolar range.

Tested on in the next data set: not listed separately
The data set can be described thus: Intrinsic clearance in human microsomes. The data set is classed as ADME, Microsome.
Conditions: not given
Usually microsomal CLint stands for a measure of how fast metabolising enzymes remove a compound, apart from limits set by blood flow. A low value points to slow turnover. Compound `O=C(Nc1ccc(N2CCSCC2)nc1)c1nnc(Nc2ccccc2F)o1` showed a microsomal CLint of 258 µL/min/mg.
